# US4210667A, “Pharmaceutical preparations containing coumarin carboxylic acid derivatives” (Pfizer Inc., priority 1979, dated 1980)
# Legend:
# [1] = target: T1, aldose reductase (Bos taurus, UniProt P16116); experiment: Aldose reductase inhibitory activity (partially purified enzyme from calf lens); assay type: biochemical; details: 10^-4 M, relative to untreated controls, Examples 2, 4, 5: average of two tests, read-out: Degree of Inhibition at 10^-4 Molar
# T1 construct: partially purified aldose reductase enzyme obtained from calf lens; from tissue; host or cells: calf lens
# Description: (§1) The ability of the active ingredients of the preparations, the derivatives,to control chronic diabetic complications and enzymatic reduction of aldoses may be determined by a number of standard biological or pharmacological tests. These include (1) measuring the ability to inhibit the enzyme activity or isolated aldose reductase; (2) measuring the ability to reduce or inhibit sorbitol accumulation in the sciatic nerve of acutely streptozotocinized (i.e., diabetic) rats; (3) measuring the ability to reverse already-elevated sorbitol levels in the sciatic nerve and lens of chronic streptozocin-induced diabetic rats; (4) measuring the ability to prevent or inhibit galactitol formation in the lens of acutely galactosemic rats; and (5) measuring the ability to delay cataract formation and reduce the severity of lens opacities in chronic galactosemic rats.
# The derivatives prepared in Examples 1-7 were tested for their ability to reduce or inhibit aldose reductase enzyme activity, following the procedure described in U.S. Pat. No. 3,821,383 and based on the procedure of Hayman et. al., Journal of Biological Chemistry, 240, 877 (1965). The substrate employed was partially purified aldose reductase enzyme obtained from calf lens. The drugs were tested at a level of 10^-4 M to determine the degree of inhibition of enzyme activity relative to untreated controls.
# [2] = tested on: sorbitol accumulation in the sciatic nerve of streptozotocinized (i.e., diabetic) rats; experiment: Inhibition of sorbitol accumulation in the sciatic nerve of streptozotocinized (diabetic) rats; assay type: in vivo, rat; details: 25 mg./kg. t.i.d. oral, at 4, 8 and 24 hours after streptozotocin; measured at 27 hours; vs untreated control; Examples 1, 5: average of two tests
# Description: as §1
# Some of the Examples of derivatives prepared above were also tested for their ability to reduce or inhibit sorbitol accumulation in the sciatic nerve of streptozotocinized (i.e., diabetic) rats essentially by the procedure described in U.S. Pat. No. 3,821,383. In the present study, the amount of sorbitol accumulation in the sciatic nerves was measured 27 hours after induction of diabetes. The compounds were administered orally at the dose level indicated at 4, 8 and 24 hours following the administration of streptozotocin. The results obtained in this manner are presented in terms of percent inhibition (%) afforded by the test compound compared to the control where no compound was administered (i.e., the untreated animal where sorbitol levels normally rise from approximately […] tissue to as high as […] tissue in the 27-hour test period).
Structure (SMILES),inhibition at 100 µM [1],% Inhibition at Dose (sorbitol accumulation in sciatic nerve) [2]
"Cc1cc(C)c2c(CC(=O)O)cc(=O)oc2c1 [Example 3, 5,7-dimethylcoumarin-4-acetic acid]",91%,11%
"O=C(O)Cc1cc(=O)oc2c1cc(Cl)c1ccccc12 [Example 2, 6-chloro-1:2-alpha-naphthapyrone-4-acetic acid]",91%,9%
"Cc1ccc2c(CC(=O)O)cc(=O)oc2c1 [Example 4, 7-methylcoumarin-4-acetic acid]",94%,–
"Cc1cc(Cl)cc2c(C(=O)O)cc(=O)oc12 [Example 6, 6-chloro-8-methylcoumarin-4-carboxylic acid]",65%,–

# The next lines start with results.
inhibition at 100 µM [1],Structure (SMILES),% Inhibition at Dose (sorbitol accumulation in sciatic nerve) [2]
81%,"Cc1cc2oc(=O)c(C)c(CC(=O)O)c2cc1C [Example 1, 3,6,7-trimethylcoumarin-4-acetic acid]",21%
94%,"Cc1cc2oc(=O)cc(CC(=O)O)c2cc1C [Example 5, 6,7-dimethylcoumarin-4-acetic acid]",4%
